A melting point compilation (Tetko et al.)

| SMILES | melting point [°C] |
| --- | --- |
| CCCCCCCCCCCCCCCC(CCCC)c1ccccc1 (stereo unspecified) | 30.2 |
| C=CC(=O)OCCCCCC | -45 |
| CCC=C(C)C | -135 |
| COC1=CC(C)C2CC3OC(O)CC4C(C)=C(OC)C(=O)C(C2(C)C1=O)C34C (stereo unspecified) | 227 |
| Cc1nn(Cc2nnc(S)o2)c(C)c1Br | 194 to 195 |
| Clc1ccc(Cc2c(N=Cc3ccc(OCc4ccccc4)cc3)n[nH]c2N=Cc2ccc(OCc3ccccc3)cc2)cc1 | 145 to 147 |
| S=C=Nc1c(Cl)c(Cl)cc(Cl)c1Cl | 88 to 90 |
| CC(C=CC=C(C)C=CC1=C(C)CC(O)CC1(C)C)=CC=CC=C(C)C=CC=C(C)C=CC1=C(C)CC(O)CC1(C)C (stereo unspecified) | 216 |
| Cc1nc(C(N)=S)cs1 | 201 to 203 |
| O=c1oc2c3c4c(cc2c2c1CCC2)CCCN4CCC3 | 149 |
| C=C(C(=O)O)C1CCC2C(=CCC3C(C)(C)C(O)CCC23C)C1 (stereo unspecified) | 218 |
| Cn1cnc(S(=O)(=O)Cl)c1 | 85 to 90 |
| C#CCCCCCCCC | -44 |
| c1ccc2c(c1)NC1(CCCC1)O2 | 221 |
| CSc1nc(NC(C)C)nc(NC(C)C)n1 | 119 |
| CCCCCCCCCCC(=O)OCC(COC(=O)CCCCCCCCCC)OC(=O)CCCCCCCCCC | 24 to 32 |
| COC1OC(CNC(=O)N(CCCl)N=O)C(O)C(O)C1O (stereo unspecified) | 111 |
| Clc1cncc(Cl)c1N1CCNCC1 | 77 to 80 |
| O=C(O)CCCCCCCCCCCCCCCCCCCCC(=O)O | 125 to 127 |

| SMILES | melting point [°C] |
| --- | --- |
| CCCCCCCCCCCCOC1OC(CO)C(OC2OC(CO)C(O)C(O)C2O)C(O)C1O (stereo unspecified) | 217 |
| Cc1cccc(C)c1N(C)C | -36 |
| CC(C)(C)c1cc(N)cc(C(C)(C)C)c1 | 56 |
| CC1(C)C(=O)OC2=C(CC3C4CC=C5CC(O)CCC5(C)C4CCC23C)C1c1ccccc1 (stereo unspecified) | 230 to 235 |
| CCCCCCCCOC1OC(CO)C(O)C(O)C1O (stereo unspecified) | 105 |
| O=S1OCCO1 | -11 |
| COc1cc(Cl)c(Cl)cc1OC | 83 |
| COc1ccc(Br)cc1C | 68 |
| CC(CCC(=O)NCC(=O)O)C1CCC2C3C(O)CC4CC(O)CCC4(C)C3CC(O)C12C (stereo unspecified) | 166 |
| O=C1C=CC(=O)C1 | 37 |
| c1ccc(N(c2ccccc2)c2ccccc2)cc1 | 127 |
| CCN(CC)CCN1C(=O)CN=C(c2ccccc2F)c2cc(Cl)ccc21 | 79.5 |
| C(=C/c1ccc(/N=C/c2ccccc2)cc1)/c1ccc(/N=C/c2ccccc2)cc1 | 104 |
| O=C(O)c1cc([N+](=O)[O-])c(Cl)c([N+](=O)[O-])c1Cl | 210 to 215 |
| CC/C=C/CCCC | -110 |
| COC(=O)C(C)N(C(=O)Cc1ccccc1)c1c(C)cccc1C (stereo unspecified) | 79 |
| CN(C)CCc1c[nH]c2cccc(OP(=O)(O)O)c12 | 224 |
| CCCC=CCCC | -90 |
| N#CC(F)(Cl)Cl | -110 |

| SMILES | melting point [°C] |
| --- | --- |
| NC(=O)C1=CN(C2OC(COP(=O)(O)OP(=O)(O)OCC3OC(n4cnc5c(N)ncnc54)C(O)C3O)C(O)C2O)C=CC1 (stereo unspecified) | 141 |
| O=C1CCCO1 | -43.3 |
| ON=CC1=C(C#Cc2ccccc2)CCC1 | 105 to 106 |
| Cc1ccc(Cl)c(Cl)c1Cl | 43.5 |
| N#Cc1cc([N+](=O)[O-])cc(Cl)c1N | 180 to 185 |
| S=C(NC1CCCCC1)C(=S)NC1CCCCC1 | 150 to 152 |
| BrC(Br)=C(Br)Br | 56.5 |
| CC(C)(C)C1CCCCC1O (stereo unspecified) | 45 |
| CC(C)CCC[C@@H](C)[C@H]1CC[C@H]2[C@@H]3CC[C@H]4C[C@H](O)CC[C@]4(C)[C@H]3CC[C@]12C | 186 |
| Cc1nn(C)c(C)c1S(=O)(=O)Cl | 39 to 42 |
| c1cnc(SSc2ncccn2)nc1 | 139 to 141 |
| Cc1cc(C(C)(C)c2ccc(O)c(C)c2)ccc1O | 139 |
| Cc1cc(Oc2ccc(N)cn2)cc(C)c1Cl | 96 to 98 |
| O=C(Cl)OCC(Cl)(Cl)Cl | 1 |
| COc1cc2c(cc1C(C)C)C(=O)C2 | 43 |
| O=C(O)C#CC(=O)O | 180 to 187 |
| C1COCCOCCOCCOCCOCCO1 | 39 |
| CCCOCOCCC | -97.3 |
| Fc1cc(CBr)ccc1Cl | 32 |

More lines, now with the values ahead:

| melting point [°C] | SMILES |
| --- | --- |
| 13 | C=Cc1ccccc1[N+](=O)[O-] |
| 72 to 77 | ON=Cc1ccccc1Cl |
| 39 | O=C(CC(=O)C(F)(F)F)c1ccccc1 |
| 244 to 245 | O=C(O)c1ccccc1N=NC1SC(=S)NC1=O (stereo unspecified) |
| 267 to 270 | Cc1ccc2oc(C(=O)O)cc(=O)c2c1 |
| 63 to 66 | CC(=O)c1ccc(OCCCCCBr)cc1O |
| 128 to 132 | Nc1ccc(Br)c([N+](=O)[O-])c1 |
| 77 | Brc1ccc(-c2cccnc2)nc1 |
| 112 | COC(=O)c1ccc(C(=O)OC)o1 |
| 180 | O=C(Cl)c1ccc2noc(-c3ccc(Cl)cc3)c2c1 |
| -13 to -12 | FC(F)(F)c1cc(Cl)cc(Cl)c1 |
| -34 | Fc1ccccc1F |
| 144 to 148 | O=C(O)CCNC(=O)OCC1c2ccccc2-c2ccccc21 |
| 127 | Cc1cc(Br)cnc1NC(=O)C(C)(C)C |
| 98 | CC12CCC(C(C(=O)c3ccccc3)C1=O)C2(C)C (stereo unspecified) |
| 91 | COC(=O)C1CCC(C)(C(O)(c2ccccc2)c2ccccc2)OC1(C)C (stereo unspecified) |
| 60 to 64 | CCCCOc1ccc(N)cc1[N+](=O)[O-] |
| 72 | Cc1noc(-c2ccccc2)c1CBr |
| 161 | COc1ccc2c(C)cc(=O)oc2c1 |
| 57 to 59 | CCOC(=O)C=Cc1ccc(O)c(OC)c1 |
| 312 | Nc1ccc(C(=O)O)cn1 |
| 89.5 | COc1ccc(C(C)=O)cc1O |
| 100 | N#CC(=Cc1ccc(Cl)cc1)C(N)=O |
| 48 to 55 | C=Cc1ccc(OCc2ccccc2)c(OC)c1 |
| 280 | FC(F)(F)c1cc(-c2n[nH]c(=S)[nH]2)cc(C(F)(F)F)c1 |

| melting point [°C] | SMILES |
| --- | --- |
| 59 | CN1C(=O)COc2ccccc21 |
| 187 to 188 | Cc1ccccc1C(=O)Cc1ccc(C(N)=O)cc1 |
| -64 | CC(=O)OC(C)CC(C)C (stereo unspecified) |
| 236 | Nc1ncnc(Nc2ccccc2)n1 |
| 196 | O=C(O)COc1cccc2ccccc12 |
| 174 | O=C(O)Cc1ccc(Cl)nc1 |
| 147 | COc1ccc(C(=O)c2cc(OC)c(OC)cc2[N+](=O)[O-])cc1 |
| 161 | O=C(Nc1ccccc1)C1Cc2ccccc21 (stereo unspecified) |
| 148 to 149 | OCc1ccc(N2CCCCC2)cc1 |
| 53 to 57 | Nc1ccc(OCCN2CCOCC2)cc1 |
| 190 to 193 | CCCCCc1ccc(-c2nnc(S)[nH]2)cc1 |
| 125 to 126 | CC(C)(C)OC(=O)N1Cc2ccccc2C[C@H]1C(=O)O |
| 194 | Nc1ccc(S(=O)(=O)c2ccc(NCC(=O)O)cc2)cc1 |
| 196 | CCC(=O)OC1(C(=O)CCl)C(C)CC2C3CCC4=CC(=O)C=CC4(C)C3(F)C(O)CC21C (stereo unspecified) |
| 238 to 240 | COc1ccc2nc(NN)nnc2c1 |
| 20 | CCC(=O)Oc1ccccc1 |
| 76 | OCc1cccc(C(F)(F)F)c1Cl |
| 266 to 268 | NS(=O)(=O)c1ccc(C(=O)O)cc1 |
| 149 | O=C1C=C(NCc2ccccn2)C(=O)c2ccccc21 |
| 157 to 159 | Cc1ccc(O)c(CO)n1 |
| 91 | COc1ccc(Br)cc1C#N |
| 127 | O=[N+]([O-])CC(Nc1ccccc1)c1cccc(C(C[N+](=O)[O-])Nc2ccccc2)c1 (stereo unspecified) |
| 177 to 181 | COc1ccc(-c2ccc(OC)cc2)cc1 |
| 209 | CCCOC(=O)C1=C(C)NC(=S)NC1c1cccc([N+](=O)[O-])c1 (stereo unspecified) |
| 52 | O=C(OCc1ccccc1)c1sc(Cl)nc1C(F)(F)F |

| melting point [°C] | SMILES |
| --- | --- |
| -30 | N=C(c1ccccc1)c1ccccc1 |
| 5 | CC(=O)SCC(C)C(=O)O (stereo unspecified) |
| 120 to 121 | Cc1nnc(SCc2ccccc2)n1N=Cc1ccc(Cl)cc1 |
| 106 to 107 | O=Cc1csc2ccc(Br)cc12 |
| 210 | O=c1c2ccccc2nc2n1CCC2O (stereo unspecified) |
| 193 | CNc1ccc(N)c2c1C(=O)c1ccccc1C2=O |
| 41 to 44 | Cc1cccc(CCC(=O)O)c1 |
| 55 to 57 | O=S(=O)(c1ccc(Cl)cc1)C(F)(F)C(F)Cl (stereo unspecified) |
| 60 | CC(C)(CC(=O)O)c1ccccc1 |
| 76 to 77 | C#Cc1ccc(-c2cnco2)cc1 |
| 35 | COc1cc(OC(F)(F)F)ccc1C#N |
| 40 to 43 | NNc1c(Cl)cc(Cl)cc1C(F)(F)F |
| 110 | CCOC(=O)c1nc(C(Cl)(Cl)Cl)n(-c2ccc(Cl)cc2Cl)n1 |
| 205 | O=C1OC2(Cc3ccccc31)C(=O)c1ccccc1C2=O |
| 176 to 180 | NC(=O)Cc1ccc(O)cc1 |
| 52 | FC(F)(F)c1ccccc1-n1ccnc1 |
| 175 | Cc1c[nH]c(-c2ccccc2)n1 |
| 90 | O=C(O)Cc1ccc(Cl)c(Cl)c1 |
| 29 | N#CCc1ccc(OC(F)(F)F)cc1 |
| 59 to 60 | OCc1ccc(Br)cn1 |
| 47 to 49 | Cc1nnc(SCc2ccccc2)n1N=Cc1ccc(N(C)C)cc1 |
| 196 | CC12CCC3c4ccc(OC(=O)c5ccccc5)cc4CCC3C1CCC2O (stereo unspecified) |
| 181 to 184 | CSCCC(NC(=O)c1ccc(C(F)(F)F)cc1)C(=O)NN (stereo unspecified) |
| 241 | NNC(=O)c1ccc(O)cc1O |
